# According to US7018802B2, “Electrochemiluminescent enzyme immunoassay” (BioVeris Corporation, priority 1995, dated 2006):
# Where two headings read alike, the source gives them in different places.
# What was measured:
# [1] = molecular target: T1, β-lactamase I from Bacillus cereus (Bacillus cereus, UniProt P00809); assay type: biochemical; conditions: for ECL increase upon enzyme hydrolysis, second experiment: incubating time with enzyme 60 minutes, ampicillin with Ru(bpy)3^+2, FIG. 9
# Method: ECL properties were compared both before and after NaOH and enzymatic hydrolysis (FIG. 7).
# Following 30 minute incubations, the solutions were neutralized with 50 μL of 5 M HCl. […] Following 30 minute incubations, 50 μL of 5 M NaCl was added to these solutions.
# ECL properties were compared before and after NaOH and enzymatic hydrolysis.
# Following 30 minute incubations, the solutions were neutralized with 50 μL of 5 M HCl. […] Following 60 minute incubations, 50 μL of 5 M NaCl was added to these solutions.
# [2] = molecular target: T1, β-lactamase I from Bacillus cereus; conditions: in words
# [3] = 3.8 μM β-lactamase I, 23.0 μM, 6-APA in equimolar mixture with Ru(bpy)3^+2 (nonconjugated), FIG. 11
# [4] = 347 nM β-lactamase I, 30 minutes, 30 μM, ampicillin in equimolar mixture with Ru(bpy)3^+2 (nonconjugated), FIG. 8
# T1 sequence (P00809 28-306): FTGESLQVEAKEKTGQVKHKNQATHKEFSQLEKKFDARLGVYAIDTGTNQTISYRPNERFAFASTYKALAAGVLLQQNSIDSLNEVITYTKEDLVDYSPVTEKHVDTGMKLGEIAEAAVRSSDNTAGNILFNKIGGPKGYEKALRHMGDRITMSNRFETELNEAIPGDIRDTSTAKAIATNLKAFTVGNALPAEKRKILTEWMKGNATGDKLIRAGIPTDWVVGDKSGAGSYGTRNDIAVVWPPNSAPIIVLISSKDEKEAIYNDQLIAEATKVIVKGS
Compound,"ECL increase upon enzyme hydrolysis [1, 3] [fold]","ECL increase upon enzyme hydrolysis [1, 4] [fold]","ECL increase upon enzyme hydrolysis, second experiment [1] [fold]",substrate quality for β-lactamase [2]
"CC1(C)S[C@@H]2[C@H](N)C(=O)N2[C@H]1C(=O)O [6-APA, 6-aminopenicillanic acid, reference compound]",1.4,,,
"CC1(C)S[C@@H]2[C@H](NC(=O)[C@H](N)c3ccccc3)C(=O)N2[C@H]1C(=O)O [ampicillin, reference compound]",,2.1,2.5,
Ru(bpy)3^+2-labeled 6-aminopenicillanic acid [Ru-APA],31.8,,,very good substrate
Ru(bpy)3^+2-labeled ampicillin [Ru-AMP],,9.8,11.1,very good substrate
